Our source for the IC50 or EC50, Ki and inhibition values is US7183411B2, “Naphthol, quinoline and isoquinoline-derived urea modulators of vanilloid VR1 receptor” (Janssen Pharmaceutica N.V., priority 2002, dated 2007).

For one test, the target named is T1, human VR1 (Homo sapiens, UniProt Q8NER1).
T1 construct: expressed in transfected cells; host or cells: HEK293
Kind of test: Human VR1 functional assay (FLIPR intracellular Ca2+, capsaicin challenge). It counts as cell-based. The settings on record: read-out: In vitro functional assays hIC50 or EC50. The protocol: The functional activity of the test compounds was determined by measuring changes in intracellular calcium concentration using a Ca^++-sensitive fluorescent dye and FLIPR™ technology.
HEK293 Cells expressing human VR1 were grown on poly-D-lysine coated 96 well black-walled plates (BD 354640) and 2 days later loaded with Fluo-3/AM for 1 hour and subsequently tested for agonist-induced increases in intracellular Ca^2+ levels using FLIPR™ technology. […] EC50 or IC50 values were determined from dose-response studies.

For test [1], the target named is T2, human VR1 vanilloid receptors (Homo sapiens, UniProt Q8NER1).
T2 construct: expressed in transfected cells; host or cells: HEK293
T2 sequence (Q8NER1 whole entry): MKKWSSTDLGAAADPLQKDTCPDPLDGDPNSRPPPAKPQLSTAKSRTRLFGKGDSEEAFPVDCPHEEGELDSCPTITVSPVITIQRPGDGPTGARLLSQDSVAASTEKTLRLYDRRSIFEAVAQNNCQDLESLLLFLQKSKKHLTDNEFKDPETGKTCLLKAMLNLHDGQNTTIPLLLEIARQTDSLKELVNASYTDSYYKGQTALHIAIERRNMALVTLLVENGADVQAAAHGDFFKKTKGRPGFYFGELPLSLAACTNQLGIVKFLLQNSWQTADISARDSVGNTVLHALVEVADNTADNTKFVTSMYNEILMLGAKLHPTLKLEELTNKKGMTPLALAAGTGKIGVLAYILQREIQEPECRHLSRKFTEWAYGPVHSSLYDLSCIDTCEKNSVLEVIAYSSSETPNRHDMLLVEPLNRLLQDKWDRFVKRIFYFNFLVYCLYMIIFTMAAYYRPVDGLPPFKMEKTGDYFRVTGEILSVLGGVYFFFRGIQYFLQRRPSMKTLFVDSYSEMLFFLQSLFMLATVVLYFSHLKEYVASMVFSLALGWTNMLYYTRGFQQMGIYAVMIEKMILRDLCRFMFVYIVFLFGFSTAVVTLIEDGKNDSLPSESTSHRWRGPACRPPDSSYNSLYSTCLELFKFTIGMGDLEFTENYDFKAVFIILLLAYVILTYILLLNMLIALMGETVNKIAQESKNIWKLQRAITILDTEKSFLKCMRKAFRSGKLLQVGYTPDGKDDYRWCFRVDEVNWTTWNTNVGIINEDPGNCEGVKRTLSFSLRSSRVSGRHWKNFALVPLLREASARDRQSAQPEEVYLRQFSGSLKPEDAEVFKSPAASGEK
Kind of test: [3H] RTX binding assay, hVR1 membranes from transfected HEK293 cells. The following applies: for Ki: human VR1, read-out: Receptor binding Ki. The method, then:
Compounds of the present invention were tested for their ability to inhibit the binding of [^3H] RTX to hVR1 receptors in a [^3H] RTX binding assay as previously described (Zhang, Sui-Po. Improved ligand binding assays for vanilloid receptors. PCT Int. Appl. (2002), 29 pp. CODEN: PIXXD2 WO 0233411 A1 20020425 AN 2002:315209; Grant, Elfrida R.; Dubin, Adrienne E.; Zhang, Sui-Po; Zivin, Robert A.; Zhong, Zhong Simultaneous intracellular calcium and sodium flux imaging in human vanilloid receptor 1 (VR1)-transfected human embryonic kidney cells: a method to resolve ionic dependence of VR1-mediated cell death. Journal of Pharmacology and Experimental Therapeutics (2002), 300(1), 9–17.)
HEK293 cells were transfected with human VR1 vanilloid receptors and washed with Hank's Balanced Salt Solution, dissociated with cell dissociation buffer (Sigma), and then centrifuged at 1000×g for 5 min. Cell pellets were homogenized in cold 20 mM HEPES buffer, pH 7.4, containing 5.8 mM NaCl, 320 mM sucrose, 2 mM MgCl2, 0.75 CaCl2 and 5 mM KCl and centrifuged at 1000×g for 15 min. The resultant supernate was then centrifuged at 40000×g for 15 min. The pelleted membranes were kept in an −80° C. freezer.
Approximately 120 μg protein/ml from membranes were incubated with indicated concentrations of [^3H] RTX in 0.5 ml of the HEPES buffer (pH 7.4) containing 0.25 mg/mL fatty acid-free bovine serum albumin at 37° C. for 60 min. The reaction mixture was then cooled to 4° C., 0.1 mg α1-acid glycoprotein added to each sample and incubated at 4° C. for 15 min. The samples were centrifuged at 18500×g for 15 min. The tip of the microcentrifuge tube containing the pellet was cut off. Bound radioactivity was quantified by scintillation counting. Non-specific binding was tested in the presence of 200 nM unlabeled RTX.

T1 sequence (Q8NER1 whole entry): as above

For the compound `O=C(NCCc1ccc(Cl)c(Cl)c1)Nc1cccc2cnccc12` [Compound 1], the IC50 or EC50 on human VR1 is 8 nM. Further, the Ki (commonly the equilibrium dissociation constant of an inhibitor or competing ligand from its target) in test [1] amounted to 12.6 nM.

With `O=C(NCCc1cccc(C(F)(F)F)c1)Nc1cccc2cnccc12` [Compound 2], the IC50 or EC50 at human VR1 was 19 nM. The Ki in test [1] was determined as 41.2 nM.

Turning to `O=C(NCCc1ccc(Cl)cc1)Nc1cccc2cnccc12` [Compound 3], the IC50 or EC50 at human VR1 came out at 36 nM. Also, the Ki in test [1] came to 88.7 nM.

With `O=C(NCc1ccc(Cl)c(Cl)c1)Nc1cccc2cnccc12` [Compound 5], the IC50 or EC50 on human VR1 was 4 nM. In test [1], the Ki worked out at 8.87 nM.

Turning to `O=C(NCc1ccc(Cl)cc1)Nc1cccc2cnccc12` [Compound 6], the IC50 or EC50 on human VR1 turned out to be 5.6 nM. For the same compound, the Ki in test [1] stood at 31 nM.

As for `O=C(NCc1cccc(C(F)(F)F)c1)Nc1cccc2cnccc12` [Compound 7], the IC50 or EC50 at human VR1 came to 11 nM. Also, the Ki in test [1] worked out at 22.7 nM.

As to `Cc1cc2c(NC(=O)NCc3ccc(Cl)c(Cl)c3)cccc2cn1` [Compound 8], at human VR1, the IC50 or EC50 amounted to 18 nM. Besides, the inhibition constant (Ki) in test [1] was found to be 12.9 nM.

`Cc1cc2c(NC(=O)NCc3cccc(C(F)(F)F)c3)cccc2cn1` [Compound 9]: the IC50 or EC50 at human VR1 stood at 9.4 nM. Also, the Ki in test [1] was found to be 39 nM.

Take `COc1ccc(C(CNC(=O)Nc2cccc3cnccc23)CC2CCCCC2)cc1` (stereo not shown) [Compound 12]: the Ki in test [1] stood at 5.62 nM.

Consider `CC(C)(C)c1ccc(CNC(=O)Nc2cccc3ccc(O)cc23)cc1` [Compound 13], for which the IC50 or EC50 at human VR1 came out at 20 nM. Besides, in test [1], the Ki turned out to be 0.12 nM.

For the compound `O=C(NCc1ccc(Cl)cc1)Nc1cccc2ccc(O)cc12` [Compound 14], the IC50 or EC50 at human VR1 was found to be 4.9 nM. In addition, the Ki in test [1] amounted to 3.27 nM.

`O=C(NCc1cccnc1)Nc1cccc2ccc(O)cc12` [Compound 15]: the IC50 or EC50 at human VR1 came out at 3700 nM. In addition, in test [1] (human VR1, 1 μM compound, read-out: Receptor binding % Inhibition @ 1 μM), the inhibition (as a rule, the change of the read-out against control, counted positive when it falls) at 1 µM was determined as 11%.

Take `O=C(NCc1ccc(OC(F)(F)F)cc1)Nc1cccc2ccc(O)cc12` [Compound 16]: on human VR1, the IC50 or EC50 was 27 nM. Further, the Ki in test [1] is 0.11 nM.

On to `O=C(NCc1ccccc1)Nc1cccc2ccc(O)cc12` [Compound 18], for which the IC50 or EC50 on human VR1 was determined as 45 nM. In test [1], the Ki is 93.5 nM.

For the compound `O=C(NCc1cccc(C(F)(F)F)c1)Nc1cccc2ccc(O)cc12` [Compound 19], the IC50 or EC50 at human VR1 worked out at 26 nM. The Ki in test [1] was 0.38 nM.

With `COc1ccc(CCNC(=O)Nc2cccc3cnccc23)cc1` [Compound 21], the IC50 or EC50 at human VR1 came out at 680 nM. The Ki in test [1] was 1290 nM.

Consider `O=C(NCc1ccc(OC(F)(F)F)cc1)Nc1cccc2cnccc12` [Compound 22], for which, at human VR1, the IC50 or EC50 was 3.3 nM. Besides, in test [1], the Ki was 1.28 nM.

Take `O=C(NCCc1ccccc1)Nc1cccc2ccc(O)cc12` [Compound 23]: the Ki in test [1] was 53.5 nM.

Consider `O=C(Nc1cccc2ccc(O)cc12)N(Cc1ccccc1)Cc1ccccc1` [Compound 25], for which the Ki in test [1] is 3280 nM.

Take `CN(Cc1ccccc1)C(=O)Nc1cccc2ccc(O)cc12` [Compound 26]: at human VR1, the IC50 or EC50 is 10000 nM. Besides, in test [1], the Ki turned out to be 18600 nM.

As for `O=C(NCCc1ccc(Cl)c(Cl)c1)Nc1cccc2ccc(O)cc12` [Compound 27], the IC50 or EC50 at human VR1 was 97 nM. In addition, in test [1], the inhibition constant (Ki) was found to be 1.22 nM.

On to `CN(Cc1ccc(Cl)c(Cl)c1)C(=O)Nc1cccc2ccc(O)cc12` [Compound 30], for which the Ki in test [1] stood at 581 nM.

With `O=C(NCc1nc2ccccc2[nH]1)Nc1cccc2ccc(O)cc12` [Compound 32], in test [1], the Ki is 2540 nM.

`O=C(NCCc1ccc(C(F)(F)F)cc1)Nc1cccc2cnccc12` [Compound 36]: the Ki in test [1] was determined as 22.4 nM.

For `O=C(NCc1ccc(F)c(F)c1)Nc1cccc2ccc(O)cc12` [Compound 42], in test [1], the Ki was determined as 7.22 nM.

In the case of `O=C(NCc1ccc(Cl)cc1Cl)Nc1cccc2ccc(O)cc12` [Compound 47], in test [1], the Ki is 2.79 nM.

Regarding `O=C(NCc1cc(C(F)(F)F)cc(C(F)(F)F)c1)Nc1cccc2ccc(O)cc12` [Compound 58], the Ki in test [1] came out at 5.16 nM.

As to `O=C(NCc1ccc(C(F)(F)F)cc1)Nc1cccc2cncc(Cl)c12` [Compound 59], in test [1], the inhibitory constant (Ki) came out at 7340 nM.
